Results: EP1290011B1 (Oncopeptides AB, priority 2000, dated 2001)
Where a name gives a salt, the structure may show the parent alone. Read-outs that look alike come from different tables or passages of the source.

Columns and labels:
Test in all cases: cells
CEM/R = type: cell-based, human
U-1752 = type: cell-based
U1906L = type: cell-based
[1] = system: panel of ten human tumour cell lines; type: cell-based; conditions: read-out: MEAN IC50
U937gtb = type: cell-based, human
U-1568 = type: cell-based
U937vcr = type: cell-based, human
U1285 = type: cell-based
ACHN = type: cell-based, human
H69 = type: cell-based, human
U1690 = type: cell-based
CEM/S = type: cell-based, human
NCI-H611 = type: cell-based
8226S = type: cell-based, human
NCI-H157 = type: cell-based
U-1810 = type: cell-based
8226Dox40 = type: cell-based, human
U-1906E = type: cell-based
NCI-H23 = type: cell-based
8226LR5 = type: cell-based, human
H69AR = type: cell-based, human
NCI-H125 = type: cell-based
[2] = system: hematological fresh human tumour specimens (PHTC); conditions: 72 h, read-out: Tumour cell survival index % Hematological
[3] = system: solid tumour fresh human tumour specimens (PHTC); conditions: 72 h, read-out: Tumour cell survival index % Solid
[4] = CEM/R, 72 hours incubation, read-out: IC50
[5] = U937gtb, lymphoma, 72 hours incubation, read-out: IC50
[6] = U937vcr, vincristine resistance, 72 hours incubation, read-out: IC50
[7] = ACHN, primary resistant renal carcinoma, 72 hours incubation, read-out: IC50
[8] = H69, small cell lung cancer, 72 hours incubation, read-out: IC50
[9] = CEM/S, 72 hours incubation, read-out: IC50
[10] = 8226S, myeloma, 72 hours incubation, read-out: IC50
[11] = 8226Dox40, doxorubicin resistance, 72 hours incubation, read-out: IC50
[12] = 8226LR5, melphalan resistance, 72 hours incubation, read-out: IC50
[13] = H69AR, doxorubicin resistance, 72 hours incubation, read-out: IC50

`CC[C@@]1(O)C(=O)OCc2c1cc1n(c2=O)Cc2cc3c(CN(C)C)c(O)ccc3nc2-1` [Topotecan, topotecan, reference compound] showed an IC50 (CEM/R; Homo sapiens, 72 h) of 20 nM, an IC50 (U-1752) of 28000 nM and an IC50 (U1906L) of 120 nM. For the same molecule, the IC50 ([1]; Homo sapiens) was 20000 nM, the IC50 (U937gtb; Homo sapiens, U-937/GTB, 72 h) was 20 nM and the IC50 (U-1568) was 115000 nM. It also gave an IC50 (U937vcr; Homo sapiens, 72 h) of 20 nM, an IC50 (U1285) of 170 nM and an IC50 (ACHN; Homo sapiens, ACHN, 72 h) of 16300 nM. The IC50 (H69; Homo sapiens, NCI-H69, 72 h) was 1720 nM, the IC50 (U1690) was 920 nM and the IC50 (CEM/S; Homo sapiens, 72 h) was 20 nM. For the same molecule, the IC50 (NCI-H611) was 236000 nM, the IC50 (8226S; Homo sapiens, 72 h) was 870 nM and the IC50 (NCI-H157; Homo sapiens, NCI-H157) was 4330 nM. The IC50 (U-1810; U-1810) was 80 nM, the IC50 (8226Dox40; Homo sapiens, 72 h) was 590 nM and the IC50 (U-1906E) was 80 nM. The IC50 (NCI-H23; Homo sapiens, NCI-H23) was 5840 nM, the IC50 (8226LR5; Homo sapiens, 72 h) was 210 nM and the IC50 (H69AR; Homo sapiens, H69AR, 72 h) was 180000 nM. The IC50 (NCI-H125; Homo sapiens, NCI-H125) was 236000 nM.

Work on `CC[C@]1(O)C[C@H]2CN(CCc3c([nH]c4ccccc34)[C@@](C(=O)OC)(c3cc4c(cc3OC)N(C=O)[C@H]3[C@@](O)(C(=O)OC)[C@H](OC(C)=O)[C@]5(CC)C=CCN6CC[C@]43[C@@H]65)C2)C1` [Vincristine, vincristine, reference compound] yielded an IC50 (CEM/R; Homo sapiens, 72 h) of 10 nM, an IC50 ([1]; Homo sapiens) of 30100 nM and an IC50 (U937gtb; Homo sapiens, U-937/GTB, 72 h) of 10 nM. It also gave an IC50 (U937vcr; Homo sapiens, 72 h) of 80 nM, an IC50 (ACHN; Homo sapiens, ACHN, 72 h) of 109000 nM and an IC50 (H69; Homo sapiens, NCI-H69, 72 h) of 69800 nM. It also gave an IC50 (CEM/S; Homo sapiens, 72 h) of 80 nM, an IC50 (8226S; Homo sapiens, 72 h) of 10 nM and a viability at 3 µM [2] of 39%. It also gave an IC50 (8226Dox40; Homo sapiens, 72 h) of 900 nM, an IC50 (8226LR5; Homo sapiens, 72 h) of 80 nM and an IC50 (H69AR; Homo sapiens, H69AR, 72 h) of 121000 nM. The viability at 3 µM [3] was 93%.

Work on `N.N.[Cl][Pt][Cl]` [Cisplatin, cisplatin, reference compound] yielded an IC50 (CEM/R; read-out: IC50) of 1870 nM, an IC50 (U-1752; read-out: IC50) of 11700 nM and an IC50 [1] of 18000 nM. The IC50 (U-1568; read-out: IC50) was 23400 nM, the IC50 (U937vcr; read-out: IC50) was 3000 nM and the IC50 (U1285; read-out: IC50) was 2930 nM. The IC50 (ACHN; read-out: IC50) was 17800 nM, the IC50 (H69; read-out: IC50) was 92500 nM and the IC50 (U1690; read-out: IC50) was 6730 nM. It also gave an IC50 (CEM/S; read-out: IC50) of 2500 nM, an IC50 (NCI-H611; read-out: IC50) of 50700 nM and an IC50 (8226S; read-out: IC50) of 14800 nM. It also gave an IC50 (NCI-H157; read-out: IC50) of 27000 nM, an IC50 (U-1810; read-out: IC50) of 10300 nM and an IC50 (U-1906E; read-out: IC50) of 21100 nM. For the same molecule, the IC50 (NCI-H23; read-out: IC50) was 11600 nM, the IC50 (8226LR5; read-out: IC50) was 16300 nM and the IC50 (H69AR; read-out: IC50) was 13500 nM. For the same molecule, the IC50 (NCI-H125; read-out: IC50) was 7000 nM.

`CCOC(=O)[C@H](Cc1ccccc1)NC(=O)[C@@H](N)Cc1ccc(N(CCCl)CCCl)cc1` [JV22, L-Melphalanyl-L-phenylalanine ethyl ester hydrochloride] was tested, and the IC50 (CEM/R; read-out: IC50) was 10 nM, the IC50 [1] was 480 nM and the IC50 (U937gtb; read-out: IC50) was 140 nM. It also gave an IC50 (U937vcr; read-out: IC50) of 130 nM, an IC50 (ACHN; read-out: IC50) of 170 nM and an IC50 (H69; read-out: IC50) of 40 nM. The IC50 (CEM/S; read-out: IC50) was 20 nM, the IC50 (8226S; read-out: IC50) was 670 nM and the IC50 (8226Dox40; read-out: IC50) was 1380 nM. For the same molecule, the IC50 (8226LR5; read-out: IC50) was 1860 nM and the IC50 (H69AR; read-out: IC50) was 390 nM.

`COc1cc([C@@H]2c3cc4c(cc3[C@@H](O[C@@H]3O[C@@H]5CO[C@@H](C)O[C@H]5[C@H](O)[C@H]3O)[C@H]3COC(=O)[C@H]23)OCO4)cc(OC)c1O` [Etoposide, etoposide] showed a viability at 8.5 µM [2] of 47% and a viability at 8.5 µM [3] of 81%.

`CCOC(=O)[C@H](Cc1ccc(OC)cc1)NC(=O)[C@@H](N)Cc1ccc(N(CCCl)CCCl)cc1` [JV25, L-Melphalanyl-L-p-methoxyphenylalanine ethyl ester hydrochloride] was tested, and the IC50 (CEM/R; [4]) was 20 nM, the IC50 ([1]; mean over the ten cell lines) was 460 nM and the IC50 (U937gtb; [5]) was 150 nM. It also gave an IC50 (U937vcr; [6]) of 160 nM, an IC50 (ACHN; [7]) of 200 nM and an IC50 (H69; [8]) of 40 nM. The IC50 (CEM/S; [9]) was 40 nM, the IC50 (8226S; [10]) was 650 nM and the IC50 (8226Dox40; [11]) was 1200 nM. For the same molecule, the IC50 (8226LR5; [12]) was 1820 nM and the IC50 (H69AR; [13]) was 280 nM.

In the case of `CCOC(=O)[C@H](Cc1ccc(N)cc1)NC(=O)[C@@H](N)Cc1ccc(N(CCCl)CCCl)cc1` [JV29, L-Me3phalariyl-L-p-aminophenylalanine ethyl ester hydrochloride], the IC50 (CEM/R; [4]) is reported as 30 nM, the IC50 ([1]; mean over the ten cell lines) is reported as 680 nM and the IC50 (U937gtb; [5]) is reported as 150 nM. The IC50 (U937vcr; [6]) was 190 nM, the IC50 (ACHN; [7]) was 190 nM and the IC50 (H69; [8]) was 90 nM. It also gave an IC50 (CEM/S; [9]) of 60 nM, an IC50 (8226S; [10]) of 900 nM and an IC50 (8226Dox40; [11]) of 2010 nM. The IC50 (8226LR5; [12]) was 2730 nM and the IC50 (H69AR; [13]) was 460 nM.

`CCOC(=O)[C@H](Cc1ccc(O)cc1)NC(=O)[C@@H](N)Cc1ccc(N(CCCl)CCCl)cc1` [JV24, L-Helphalanyl-L-tyrosine ethyl ester hydrochloride] showed an IC50 (CEM/R; read-out: IC50) of 30 nM, an IC50 [1] of 1050 nM and an IC50 (U937gtb; read-out: IC50) of 200 nM. For the same molecule, the IC50 (U937vcr; read-out: IC50) was 210 nM, the IC50 (ACHN; read-out: IC50) was 320 nM and the IC50 (H69; read-out: IC50) was 80 nM. The IC50 (CEM/S; read-out: IC50) was 50 nM, the IC50 (8226S; read-out: IC50) was 1110 nM and the IC50 (8226Dox40; read-out: IC50) was 5540 nM. The IC50 (8226LR5; read-out: IC50) was 2500 nM and the IC50 (H69AR; read-out: IC50) was 480 nM.
